The source of these data is patent US6046217A, “2,3,5-trisubstituted pyridines as inhibitors of cyclooxygenase-2” (Merck Frosst Canada & Co., priority 1998, dated 2000).

For test [1], the target named is T1, COX-2 (Homo sapiens, UniProt P35354).
T1 sequence (P35354 18-604): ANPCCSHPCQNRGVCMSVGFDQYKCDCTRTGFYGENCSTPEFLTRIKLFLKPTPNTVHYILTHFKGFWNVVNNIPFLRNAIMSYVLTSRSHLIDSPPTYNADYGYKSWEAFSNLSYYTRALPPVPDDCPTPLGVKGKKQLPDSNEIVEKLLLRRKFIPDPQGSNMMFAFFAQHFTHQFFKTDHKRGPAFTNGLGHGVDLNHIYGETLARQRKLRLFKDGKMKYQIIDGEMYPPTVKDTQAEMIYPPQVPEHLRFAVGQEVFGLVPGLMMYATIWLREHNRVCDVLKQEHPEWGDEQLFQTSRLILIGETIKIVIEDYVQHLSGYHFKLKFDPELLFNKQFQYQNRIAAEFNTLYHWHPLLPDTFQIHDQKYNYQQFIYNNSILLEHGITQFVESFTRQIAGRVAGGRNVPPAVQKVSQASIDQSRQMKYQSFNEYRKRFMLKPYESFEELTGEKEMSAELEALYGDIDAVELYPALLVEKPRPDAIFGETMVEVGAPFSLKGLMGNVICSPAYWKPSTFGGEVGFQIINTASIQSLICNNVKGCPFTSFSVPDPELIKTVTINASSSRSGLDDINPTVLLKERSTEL
Nature of the test: cell-based. Conditions: CHO[hCOX-2] cells, 10 μM AA, 15 min preincubation; read-out: COX-2 (IC50 mM) CHO.

Test [2] deals with T1, COX-2. Nature of the test: cell-based. Conditions: human whole blood, LPS-induced PGE2, 24 h; read-out: COX-2 (IC50 mM) HWB. The source says:
As well, platelets in whole blood contain a large amount of the COX-1 enzyme. Immediately following blood clotting, platelets are activated through a thrombin-mediated mechanism. This reaction results in the production of thromboxane B2 (TxB2) via activation of COX-1. Thus, the effect of test compounds on TxB2 levels following blood clotting can be examined and used as an index for COX-1 activity. Therefore, the degree of selectivity by the test compound can be determined by measuring the levels of PGE2 after LPS induction (COX-2) and TxB2 following blood clotting (COX-1) in the same assay.
Fresh blood is collected in heparinized tubes by venipuncture from both male and female volunteers. The subjects have no apparent inflammatory conditions and have not taken any NSAIDs for at least 7 days prior to blood collection. Plasma is immediately obtained from a 2mL blood aliquot to use as blank (basal levels of PGE2). The remaining blood is incubated with LPS (100 μg/ml final concentration, Sigma Chem, #L-2630 from E. coli; diluted in 0.1% BSA (Phosphate buffered saline) for 5 minutes at room temperature. Five hundred […] aliquots of blood are incubated with either 2 μL of vehicle (DMSO) or 2 μL of a test compound at final concentrations varying from 10 nM to 30 μM for 24 hours at 37° C. At the end of the incubation, the blood is centrifuged at 12,000×g for 5 minutes to obtain plasma. A 100 μL aliquot of plasma is mixed with 400 μL of methanol for protein precipitation. The supernatant is obtained and is assayed for PGE2 using a radioimmunoassay kit (Amersham, RPA#530) after conversion of PGE2 to its methyl oximate derivative according to the manufacturer's procedure. […]

The next test deals with COX-1 (Homo sapiens, UniProt P23219). In words: Assay of COX-1 activity from U937 cell microsomes (PGE2). Format: biochemical. On the set-up: Assay of COX-1 Activity from U937 Cell Microsomes; endogenous in cells; host or cells: U937 cells, 100,000 x g microsomal pellet. Conditions: U-937 cell microsomes, 15 min preincubation; read-out: COX-1 (IC50 mM) U-937. The protocol: U 937 cells are pelleted by centrifugation at 500×g for 5 min and washed once with phosphate-buffered saline and repelleted. Cells are resuspended in homogenization buffer consisting of 0.1 M Tris-HCl, pH 7.4, 10 mM EDTA, […] leupeptin, 2 μg/ml soybean trypsin inhibitor, 2 μg/ml aprotinin and 1 mM phenyl methyl sulfonyl fluoride. The cell suspension is sonicated 4 times for 10 sec and is centrifuged at 10,000×g for 10 min at 4° C. The supernatant is centrifuged at 100,000×g for 1 hr at 4° C. The 100,000×g microsomal pellet is resuspended in 0.1 M Tris-HCl, pH 7.4, 10 mM EDTA to approximately 7 mg protein/ml and stored at -80° C.
COX-1, sequence (P23219 24-599): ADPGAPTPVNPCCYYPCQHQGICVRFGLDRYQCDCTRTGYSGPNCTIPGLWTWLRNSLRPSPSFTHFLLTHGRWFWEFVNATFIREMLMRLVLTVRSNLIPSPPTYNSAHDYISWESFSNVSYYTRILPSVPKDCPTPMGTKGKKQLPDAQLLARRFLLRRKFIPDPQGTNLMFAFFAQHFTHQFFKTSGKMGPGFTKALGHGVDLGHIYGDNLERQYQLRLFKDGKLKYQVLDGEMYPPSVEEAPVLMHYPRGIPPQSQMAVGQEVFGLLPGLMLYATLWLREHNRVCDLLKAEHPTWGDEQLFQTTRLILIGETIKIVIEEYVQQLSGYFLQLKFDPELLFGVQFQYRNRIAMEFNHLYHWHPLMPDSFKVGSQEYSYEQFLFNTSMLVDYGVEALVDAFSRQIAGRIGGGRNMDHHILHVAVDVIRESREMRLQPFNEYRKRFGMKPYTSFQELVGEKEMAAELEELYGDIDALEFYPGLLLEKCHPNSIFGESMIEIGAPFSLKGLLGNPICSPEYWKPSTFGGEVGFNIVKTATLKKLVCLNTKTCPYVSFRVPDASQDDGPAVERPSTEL
Microsomal preparations are thawed immediately prior to use, subjected to a brief sonication, and then diluted to a protein concentration of 125 μg/ml in 0.1 M Tris-HCl buffer, pH 7.4 containing 10 mM EDTA, 0.5 mM phenol, 1 mM reduced glutathione and 1 μM hematin. Assays are performed in duplicate in a final volume of 250 μl. Initially, 5 μl of DMSO vehicle or drug in DMSO are added to 20 μl of 0.1 M Tris-HCl buffer, pH 7.4 containing 10 mM EDTA in wells of a 96-deepwell polypropylene titre plate. 200 μl of the microsomal preparation are then added and pre-incubated for 15 min at room temperature before addition of 25 μl of […] arachidonic acid in […] Tris-HCl and 10 mM EDTA, pH 7.4. Samples are incubated for 40 min at room temperature and the reaction is stopped by the addition of 25 μl of 1 N HCl. Samples are neutralized with 25 μl of 1 N NaOH prior to quantitation of PGE2 content by radioimmunoassay (Dupont-NEN or Amersham assay kits). Cyclooxygenase activity is defined as the difference between PGE2 levels in samples incubated in the presence of arachidonic acid and ethanol vehicle.
In the assay, inhibition is determined by measuring the amount of prostaglandin E2 (PGE2) synthesized in the presence of arachidonic acid, cyclooxygenase-1 or cyclooxygenase-2 and a putative inhibitor.

Where two headings read alike, the source gives them in different places.

For the molecule `C[C@]1(O)CCC[C@H]1Oc1ncc(Cl)cc1-c1ccc(S(C)(=O)=O)cc1` (relative stereo) [Example 34, 5-Chloro-2-(cis-2-hydroxy-2-methylcyclopentyloxy)-3-(4-methylsulfonyl)phenylpyridine], the IC50 (commonly the concentration that inhibits the measured activity by half) at COX-2 [1] was 100 nM; on COX-2 [2], 0.0017 mM; at COX-1 it was greater than 0.01 mM.

Take `C[C@H](O)CCOc1ncc(C(F)(F)F)cc1-c1ccc(S(C)(=O)=O)cc1` [Example 38, 2-((3S)-3-Hydroxy-1-butyloxy)-3-(4-methylsulfonyl)phenyl-5-trifluoromethylpyridine]: the IC50 on COX-2 [1] is 260 nM; at COX-2 [2], 0.0059 mM; on COX-1 it was 0.003 to 0.01 mM.

For `C[C@H](O)[C@@H](C)Oc1ncc(C(F)(F)F)cc1-c1ccc(S(C)(=O)=O)cc1` [Example 25, 2-((2R,3S)-3-Hydroxy-2-butyloxy)-3-(4-methylsulfonyl)phenyl-5-trifluoromethylpyridine], the IC50 at COX-2 [1] is 60 nM; on COX-2 [2] it was 0.0036 mM; at COX-1, greater than 0.01 mM.

In the case of `CCC(O)(CC)COc1ncc(C(F)(F)F)cc1-c1ccc(S(C)(=O)=O)cc1` [Example 8, 2-(2-Hydroxy-2-ethyl-1-butyloxy)-3-(4-methylsulfonyl)phenyl-5-trifluoromethylpyridine], the IC50 at COX-2 [1] is 190 nM; on COX-2 [2], 0.0011 mM; at COX-1, greater than 0.01 mM.

For the molecule `CC(C)(O)CCOc1ncc(C(F)(F)F)cc1-c1ccc(S(C)(=O)=O)cc1` [Example 40, 2-(3-Hydroxy-3-methyl-1-butyloxy)-3-(4-methylsulfonyl)phenyl-5-trifluoromethylpyridine], the IC50 on COX-2 [1] is 200 nM; at COX-2 [2], 0.0039 mM; on COX-1, 0.01 mM.

Consider `CCC(Oc1ncc(C(F)(F)F)cc1-c1ccc(S(C)(=O)=O)cc1)C(C)(C)O` (stereo not drawn) [Example 19, 2-(4-Hydroxy-4-methyl-3-pentyloxy)-3-(4-methylsulfonyl)phenyl-5-trifluoromethylpyridine], for which the IC50 on COX-2 [1] was 320 nM; at COX-2 [2], 0.0005 mM; at COX-1, greater than 0.01 mM.

On to `C[C@@H](Oc1ncc(Cl)cc1-c1ccc(S(C)(=O)=O)cc1)C(C)(C)O` [Example 18, 5-Chloro-2-((2R)-3-Hydroxy-3-methyl-2-butyloxy)-3-(4-methylsulfonyl)phenylpyridine], for which the IC50 is 80 nM on COX-2 [1], 0.0004 mM on COX-2 [2] and greater than 0.01 mM at COX-1.

For the molecule `C[C@H](CCO)Oc1ncc(C(F)(F)F)cc1-c1ccc(S(C)(=O)=O)cc1` [Example 41, 2-((2R)-4-Hydroxy-2-butyloxy)-3-(4-methylsulfonyl)phenyl-5-trifluoromethylpyridine], the IC50 is 40 nM at COX-2 [1], 0.0004 mM on COX-2 [2] and greater than 0.01 mM on COX-1.

On to `COC(C)(C)COc1ncc(C(F)(F)F)cc1-c1ccc(S(C)(=O)=O)cc1` [Example 6, 2-(2-Methoxy-2-methyl-1-propyloxy)-3-(4-methylsulfonyl)phenyl-5-trifluoromethylpyridine], for which the IC50 on COX-2 [1] was 30 nM; at COX-2 [2], less than 0.0004 mM; on COX-1, 0.003 to 0.01 mM.

In the case of `CCC(O)(CC)CSc1ncc(C(F)(F)F)cc1-c1ccc(S(C)(=O)=O)cc1` [Example 47, 2-(2-Ethyl-2-hydroxy-1-thiobutyloxy)-3-(4-methylsulfonyl)phenyl-5-trifluoromethylpyridine], the IC50 on COX-2 [1] was 20 nM; at COX-2 [2] it was 0.0006 mM; on COX-1, 0.003 to 0.01 mM.

In the case of `CC(C)(O)COc1ncc(Cl)cc1-c1ccc(S(C)(=O)=O)cc1` [Example 5, 5-Chloro-2-(2-hydroxy-2-methyl-1-propyloxy)-3-(4-methylsulfonyl)phenylpyridine], the IC50 at COX-2 [1] was 110 nM; on COX-2 [2], 0.0036 mM; at COX-1 it was greater than 0.1 mM.

For the molecule `CCC(O)(CC)[C@H](C)Oc1ncc(C(F)(F)F)cc1-c1ccc(S(C)(=O)=O)cc1` [Example 20, 2-((2S)-3-Ethyl-3-hydroxy-2-pentyloxy)-3-(4-methylsulfonyl)phenyl-5-trifluoromethylpyridine], the IC50 on COX-2 [1] was 400 nM; on COX-2 [2] it was 0.0016 mM; at COX-1, greater than 0.01 mM.
